According to PubChem BioAssay AID1963827 (Molecular Pharmacology Branch, DTP, NCI, 2024):

Test system: 994946-033-R-J1-PDC complex spheroid viability
Experiment: Anticancer human tumor 994946-033-R-J1-PDC patient-derived melanoma cell line growth inhibition [POLQ]
Conditions: for IC50: curve of first compound; for viability, T/C: stronger effect = lower value
Description: Multicellular complex tumor spheroid response to Polymerase (POL) inhibitors (novobiocin, ART-558, RP6685) in combination with a variety of drugs and investigational agents in selected tumor cell lines
The POL inhibitors (novobiocin, ART-558, and RP6685) were evaluated both individually and in combination with standard of care and investigational anticancer small molecules within a complex spheroid model of solid tumors. . Complex spheroids include a stromal component modeled by human endothelial cells (HUVEC) and fibroblasts modeled by human mesenchymal stem cells (MSCs). The concentration ranges selected for each drug and investigational agent were based upon clinically achievable concentrations if the clinical Cmax of the agent was known.
Compounds. The drugs and investigational agents: novobiocin (NSC847541), ART-558 (NSC835418), RP-6685 (NSC848927), peposertib (NSC802822), ceralasertib (NSC780249), elimusertib (NSC800525), camonsertib (NSC841442), AZD-1390 (NSC803789), olaparib (NSC753686), talazoparib (NSC767125), rucaparib (NSC756644), sotorasib (NSC818433), MRTX-1133 (NSC836407), SN-38 (NSC673596), topotecan (NSC609699), epotoside (NSC141540), doxorubicin (NSC123127), gemcitabine (NSC613327), 5-fluorouracil (NSC19893), paclitaxel (NSC125973), vemurafenib (NSC761431), MSA-2 (NSC828583), SN-011 (NSC837082), adavosertib (NSC754352), prexasertib (NSC758257), carboplatin (NSC241240) and oxaliplatin (NSC266046), were obtained from the National Cancer Institute (NCI) Developmental Therapeutics Program Chemical Repository (21). The FDA-approved anticancer drug set is available from the Developmental Therapeutics Program at https://dtp.cancer.gov/organization/dscb/obtaining/. […] The stock solutions were prepared in dimethyl sulfoxide (DMSO, Sigma-Aldrich, St. Louis, MO, cat. D2650), except for the platinum compounds which were prepared in saline (Quality Biological, Gaithersburg, MD, cat. 114-055-101), at 800-fold the tested concentration and stored at -70 degrees C prior to their use. All drugs and investigational agents were tested over a range starting from a high concentration at or near the clinical Cmax and decreasing in half-log increments. If the clinical Cmax for an agent had not been determined, the highest concentration tested was 10 microM, except for SN-38, which was tested at a high concentration of 1 microM.
Cell Culture. All cells were maintained in an incubator at 37 degrees C and 5% CO2 with 95% humidity. The PDC lines were cultured according to standard operating procedures established by the NCI PDMR (https://pdmr.cancer.gov). Table 3 of the manuscript, lists the cell lines along with the number of the three cell types plated to form the mct-spheroids and media for tumor cell growth. After thawing, all PDC lines, except 997537-175-T-J1-PDC and 415267-285-R-J2-PDC, were cultured in Matrigel-coated flasks prepared with a working solution of 1X Ham's F-12 nutrient mix, without supplementation (Thermo Fisher Scientific, cat. 11765054), 100 U/mL penicillin-streptomycin (Thermo Fisher Scientific, cat. 15140122), and 2.5% Matrigel (Corning Inc., Corning, NY, cat. 354248) for the first three passages. The two PDC lines 997537-175-T-J1-PDC and 415267-285-R-J2-PDC were cultured on uncoated flasks. The 857933-349-R-J2-PDC line was cultured in 6C/Colon 1B media containing advanced DMEM/F-12 (Thermo Fisher Scientific, cat. 12634028), 10 mM HEPES (Thermo Fisher Scientific, cat. 15630080), 1X GlutaMAX supplement (Thermo Fisher Scientific, cat. 35050061), 0.1 mg/mL primocin (InvivoGen, San Diego, CA, cat. ant-pm-2), 10% defined fetal bovine serum, heat inactivated (HyClone Laboratories Inc., Logan, UT, cat. SH30070.03HI), 50% L-WRN conditioned media (ATCC, cat. CRL-3276), 1.25 mM N-Acetyl-L-cysteine (Sigma-Aldrich, cat. A9165), 10 mM nicotinamide (Sigma-Aldrich, cat. N0636), 1X B-27 supplement (Thermo Fisher Scientific, cat. 17504044), 1X N-2 supplement (Thermo Fisher Scientific, cat. […]

[1] = second compound 0.0316 µM, first compound 0.0316 µM
[2] = second compound 0.0316 µM, first compound 0.1 µM
[3] = second compound 0.0316 µM, first compound 0.316 µM
[4] = second compound 0.0316 µM, first compound 1 µM
[5] = second compound 0.0316 µM, first compound 3.16 µM
[6] = second compound 0.0316 µM, first compound 10 µM
[7] = second compound 0.1 µM, first compound 0.0316 µM
[8] = second compound 0.1 µM, first compound 0.1 µM
[9] = second compound 0.1 µM, first compound 0.316 µM
[10] = second compound 0.1 µM, first compound 1 µM
[11] = second compound 0.1 µM, first compound 3.16 µM
[12] = second compound 0.1 µM, first compound 10 µM
[13] = second compound 0.316 µM, first compound 0.0316 µM
[14] = second compound 0.316 µM, first compound 0.1 µM
[15] = second compound 0.316 µM, first compound 0.316 µM
[16] = second compound 0.316 µM, first compound 1 µM
[17] = second compound 0.316 µM, first compound 3.16 µM
[18] = second compound 0.316 µM, first compound 10 µM
[19] = second compound 1 µM, first compound 0.0316 µM
[20] = second compound 1 µM, first compound 0.1 µM
[21] = second compound 1 µM, first compound 0.316 µM
[22] = second compound 1 µM, first compound 1 µM
[23] = second compound 1 µM, first compound 3.16 µM
[24] = second compound 1 µM, first compound 10 µM
[25] = second compound 3.16 µM, first compound 0.0316 µM
[26] = second compound 3.16 µM, first compound 0.1 µM
[27] = second compound 3.16 µM, first compound 0.316 µM
[28] = second compound 3.16 µM, first compound 1 µM
[29] = second compound 3.16 µM, first compound 3.16 µM
[30] = second compound 3.16 µM, first compound 10 µM
[31] = second compound 10 µM, first compound 0.0316 µM
[32] = second compound 10 µM, first compound 0.1 µM
[33] = second compound 10 µM, first compound 0.316 µM
[34] = second compound 10 µM, first compound 1 µM
[35] = second compound 10 µM, first compound 3.16 µM
[36] = second compound 10 µM, first compound 10 µM
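Further: spheroids exposed to drugs for 7 days.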
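Wherever viability, T/C is given: 100% = DMSO vehicle treated spheroids.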

CC(=O)O[C@H]1C(=O)[C@@]2(C)[C@H]([C@H](OC(=O)c3ccccc3)[C@]3(O)C[C@H](OC(=O)[C@H](O)[C@@H](NC(=O)c4ccccc4)c4ccccc4)C(C)=C1C3(C)C)[C@]1(OC(C)=O)CO[C@@H]1C[C@@H]2O + COC1C(OC(N)=O)C(O)C(Oc2ccc3c(O)c(NC(=O)c4ccc(O)c(CC=C(C)C)c4)c(=O)oc3c2C)OC1(C)C
IC50 (second compound 0.0316 µM): < 9.49 nM | IC50 (second compound 0.1 µM): < 9.49 nM | IC50 (second compound 0.316 µM): < 9.49 nM | IC50 (second compound 1 µM): < 9.49 nM | IC50 (second compound 3.16 µM): < 9.49 nM | IC50 (second compound 10 µM): < 9.49 nM | viability, T/C (second compound 0.0316 µM, first compound 0.00949 µM): 23.9% | viability, T/C (second compound 0.0316 µM, first compound 0.03 µM): 25.3% | viability, T/C (second compound 0.0316 µM, first compound 0.0949 µM): 16.4% | viability, T/C (second compound 0.0316 µM, first compound 0.3 µM): 12.5% | viability, T/C (second compound 0.0316 µM, first compound 0.949 µM): 12% | viability, T/C (second compound 0.0316 µM, first compound 3 µM): 10.4% | viability, T/C (second compound 0.1 µM, first compound 0.00949 µM): 24.4% | viability, T/C (second compound 0.1 µM, first compound 0.03 µM): 20.5% | viability, T/C (second compound 0.1 µM, first compound 0.0949 µM): 14.5% | viability, T/C (second compound 0.1 µM, first compound 0.3 µM): 11.9% | viability, T/C (second compound 0.1 µM, first compound 0.949 µM): 14.2% | viability, T/C (second compound 0.1 µM, first compound 3 µM): 9.19% | viability, T/C (second compound 0.316 µM, first compound 0.00949 µM): 20.4% | viability, T/C (second compound 0.316 µM, first compound 0.03 µM): 23.3% | viability, T/C (second compound 0.316 µM, first compound 0.0949 µM): 23.7% | viability, T/C (second compound 0.316 µM, first compound 0.3 µM): 17.2% | viability, T/C (second compound 0.316 µM, first compound 0.949 µM): 15.4% | viability, T/C (second compound 0.316 µM, first compound 3 µM): 14.9% | viability, T/C (second compound 1 µM, first compound 0.00949 µM): 22.8% | viability, T/C (second compound 1 µM, first compound 0.03 µM): 18% | viability, T/C (second compound 1 µM, first compound 0.0949 µM): 17.1% | viability, T/C (second compound 1 µM, first compound 0.3 µM): 18.5% | viability, T/C (second compound 1 µM, first compound 0.949 µM): 14.7% | viability, T/C (second compound 1 µM, first compound 3 µM): 10.9% | viability, T/C (second compound 3.16 µM, first compound 0.00949 µM): 23.8% | viability, T/C (second compound 3.16 µM, first compound 0.03 µM): 20.4% | viability, T/C (second compound 3.16 µM, first compound 0.0949 µM): 19.9% | viability, T/C (second compound 3.16 µM, first compound 0.3 µM): 15.4% | viability, T/C (second compound 3.16 µM, first compound 0.949 µM): 15.1% | viability, T/C (second compound 3.16 µM, first compound 3 µM): 11.3% | viability, T/C (second compound 10 µM, first compound 0.00949 µM): 21.5% | viability, T/C (second compound 10 µM, first compound 0.03 µM): 26% | viability, T/C (second compound 10 µM, first compound 0.0949 µM): 16.2% | viability, T/C (second compound 10 µM, first compound 0.3 µM): 12.8% | viability, T/C (second compound 10 µM, first compound 0.949 µM): 14.9% | viability, T/C (second compound 10 µM, first compound 3 µM): 8.96%

COc1cc(C2c3cc4c(cc3C(OC3OC5COC(C)OC5C(O)C3O)C3COC(=O)C23)OCO4)cc(OC)c1O (stereo unspecified) + COC1C(OC(N)=O)C(O)C(Oc2ccc3c(O)c(NC(=O)c4ccc(O)c(CC=C(C)C)c4)c(=O)oc3c2C)OC1(C)C
IC50 (second compound 0.0316 µM): 690 nM | IC50 (second compound 0.1 µM): 237 nM | IC50 (second compound 0.316 µM): 254 nM | IC50 (second compound 1 µM): 539 nM | IC50 (second compound 3.16 µM): 274 nM | IC50 (second compound 10 µM): 588 nM | viability, T/C [1]: 77.1% | viability, T/C [2]: 78.6% | viability, T/C [3]: 46% | viability, T/C [4]: 61% | viability, T/C [5]: 12.8% | viability, T/C [6]: 6.71% | viability, T/C [7]: 95.9% | viability, T/C [8]: 58.9% | viability, T/C [9]: 44% | viability, T/C [10]: 38.7% | viability, T/C [11]: 13% | viability, T/C [12]: 7.35% | viability, T/C [13]: 118% | viability, T/C [14]: 70.7% | viability, T/C [15]: 40.2% | viability, T/C [16]: 36.7% | viability, T/C [17]: 14.5% | viability, T/C [18]: 6.69% | viability, T/C [19]: 88.3% | viability, T/C [20]: 67.1% | viability, T/C [21]: 63.5% | viability, T/C [22]: 41.2% | viability, T/C [23]: 18.5% | viability, T/C [24]: 7.04% | viability, T/C [25]: 109% | viability, T/C [26]: 60.7% | viability, T/C [27]: 53.2% | viability, T/C [28]: 36.3% | viability, T/C [29]: 10.2% | viability, T/C [30]: 7.78% | viability, T/C [31]: 111% | viability, T/C [32]: 70.2% | viability, T/C [33]: 57.8% | viability, T/C [34]: 52.3% | viability, T/C [35]: 14.9% | viability, T/C [36]: 5.69%

O=c1[nH]cc(F)c(=O)[nH]1 + COC1C(OC(N)=O)C(O)C(Oc2ccc3c(O)c(NC(=O)c4ccc(O)c(CC=C(C)C)c4)c(=O)oc3c2C)OC1(C)C
IC50 (second compound 0.0316 µM): > 10000 nM | IC50 (second compound 0.1 µM): 8300 nM | IC50 (second compound 0.316 µM): 7080 nM | IC50 (second compound 1 µM): > 10000 nM | IC50 (second compound 3.16 µM): 8980 nM | IC50 (second compound 10 µM): > 10000 nM | viability, T/C [1]: 86% | viability, T/C [2]: 130% | viability, T/C [3]: 113% | viability, T/C [4]: 76% | viability, T/C [5]: 60.7% | viability, T/C [6]: 53.7% | viability, T/C [7]: 91.2% | viability, T/C [8]: 93.2% | viability, T/C [9]: 102% | viability, T/C [10]: 82% | viability, T/C [11]: 61.7% | viability, T/C [12]: 47.4% | viability, T/C [13]: 133% | viability, T/C [14]: 99.6% | viability, T/C [15]: 100% | viability, T/C [16]: 71% | viability, T/C [17]: 45.3% | viability, T/C [18]: 53.5% | viability, T/C [19]: 87.6% | viability, T/C [20]: 102% | viability, T/C [21]: 91.8% | viability, T/C [22]: 57% | viability, T/C [23]: 53.7% | viability, T/C [24]: 53.9% | viability, T/C [25]: 124% | viability, T/C [26]: 113% | viability, T/C [27]: 83.7% | viability, T/C [28]: 65.9% | viability, T/C [29]: 60.6% | viability, T/C [30]: 50.4% | viability, T/C [31]: 108% | viability, T/C [32]: 114% | viability, T/C [33]: 90.5% | viability, T/C [34]: 81.1% | viability, T/C [35]: 58.6% | viability, T/C [36]: 61.5%
